Experiments:
Assay type in all cases: cell-based, mouse
[1] = system: constitutively-active Stat3 in NIH3T3/v-Src; experiment: Constitutive Stat3 DNA-binding activity in treated NIH3T3/v-Src cells (EMSA of nuclear extracts)
Protocol: (§1) FIGS. 3A-3D. Inhibition of Stat3-mediated gene expression by PLATINUM-401. (FIG. 3A) and (FIG. 3B) v-Src-transformed mouse fibroblasts that stably express Stat3-dependent (NIH3T3/v-Src/pLucTKS3) and Stat3-independent (NIH3T3/v-Src/pRLSRE) luciferase reporters or β-galactosidase (β-gal), as well as normal mouse fibroblast (NIH3T3) transiently transfected with pLucTKS3, pGL2-VEGF-Luc, NFkB-Luc or pLucSRE together with or without v-Src were treated with or without PLATINUM-401 for 48 h. Cytosolic extracts were then prepared from cells for luciferase and […] activities measurements. Values are the means and S.D. of three to five independent assays; (FIG. 3C) and (FIG. 3D) Nuclear extracts or whole cell lysates were prepared from IL-6-stimulated normal mouse fibroblasts (NIH3T3) or their v-Src-transformed counterpart (NIH3T3/v-Src) that are treated with or without PLATINUM-401 for different times. Samples of equal total proteins were then subjected to in vitro DNA-binding activity and EMSA analysis or for SDS-PAGE and Western blot analysis for phosphorylated and total Stat3.
Nuclear extract preparation and gel shift assays—Nuclear extract preparation from NIH3T3 stimulated by rhIL-6, NIH3T3/hEGFR stimulated by rhEGF, v-Src-transformed fibroblasts (NIH3T3/v-Src) or tumor cell lines and electrophoretic mobility shift assay were carried out as previously described (Turkson et al., 1998; Garcia et al., 1997; Yu et al., 1995). The ^32P-labeled oligonucleotide probes used are hSIE (high affinity sis-inducible element from the c-fos gene, m67 variant, 5′-[…]) (SEQ ID NO:1) that binds Stat1 and Stat3 (Garcia et al., 1997; Wagner et al., 1990) and MGFe (mammary gland factor element from the bovine β-casein gene promoter, 5′-AGATTTCTAGGAATTCAA) (SEQ ID NO:2) for Stat1 and Stat5 binding (49,50). Except where indicated, inhibitor compound was pre-incubated with the nuclear extract for 30 min at room temperature prior to incubation with radiolabeled probe.
To further investigate the activities of PLATINUM-401, the inventors treated malignant cells and measured effects on Stat3 signaling. […] Taken together with the results in FIG. 1, these findings indicate that PLATINUM-401 blocks the binding of activated Stat3 to its responsive elements in the promoters of target genes. Moreover, in a time- and dose-dependent manner, PLATINUM-401 inhibits the constitutive or ligand-induced activation of Stat3 DNA-binding activity (FIG. 3C), as well as tyrosine phosphorylation in mouse fibroblasts (FIG. 3D and data not shown). […] Changes in Stat3 protein levels were minimal. […] Results together indicate that at the 5-10 μM PLATINUM-401 that inhibits intracellular Stat3 signaling, there is no observable non-specific effect on non-Stat3 related pathways investigated here.
To further elucidate the interaction between Stat3 and PLATINUM-401, v-Src-transformed mouse fibroblasts were transfected with Stat3 protein and then used to investigate PLATINUM-401 activity. The transfection of wild-type Stat3 into the v-Src-transformed fibroblasts results in higher Stat3 DNA-binding activity over that of parentals, as measured by in vitro DNA-binding activity and EMSA analysis (FIG. 7C, left panel, lanes 3 and 6 versus 1 and 2). This is due to the increased expression of Stat3 protein and the consequent phosphorylation by oncogenic Src tyrosine kinase that is present in these cells.

[2] = system: normal NIH 3T3 fibroblasts; experiment: Ki67 proliferation index by immunohistochemistry; settings: no persistent Stat3 activity
Protocol: FIGS. 5A and 5B. Evaluation for effects of PLATINUM-401 on cellular constitutive Stat3 activation and cell proliferation. Normal or malignant cells were treated with or without PLATINUM-401 and nuclear extracts were prepared for Stat3 DNA-binding activity assay with hSIE probe, or cells were processed for nuclear Ki67 immunohistochemistry. (FIG. 5A) EMSA analysis of Stat3 DNA-binding activity; (FIG. 5B) Graphical representations of quantified nuclear staining of Ki-67 proliferation index. Stat3:Stat3-DNA complexes in gels are labeled. The Ki-67 proliferation indexes were calculated as the percent positive tumor cells relative to the total number of cells. […]
Immunohistochemistry—The indirect peroxidase-antiperoxidase test was performed on cytospins prepared from cell lines (control and treated). […] The presence of Ki-67 nuclear staining was calculated as percent positive tumor cells in relation to the total number of cells.
The inventors further examined the biological effects of PLATINUM-401 and determined whether any changes might correlate with the inhibition of constitutively-active Stat3. […]
Changes in cell proliferation induced by treatment with PLATINUM-401 were assayed in terms of Ki67 proliferation index by immunohistochemistry. The presence of Ki-67 nuclear staining was calculated as the percent positive tumor cells in relation to the total number of cells.

[3] = system: IL-6-induced Stat3 activation in NIH3T3; experiment: IL-6-induced Stat3 activation in NIH3T3 (EMSA of nuclear extracts)
Protocol: as §1, with “Stat3. […]” for “Stat3.”
To further investigate the activities of PLATINUM-401, the inventors treated malignant cells and measured effects on Stat3 signaling. […]

CC(O)CN1CCN(CC(C)O)CC1 (centres unmarked) [PLATINUM-401]
constitutively-active Stat3 DNA-binding activity, cells transfected with wild-type Stat3 ([1]; NIH3T3/v-Src transfected with exogenous wild-type Stat3, 5 μM, 36 h): no significant reduction | time required for significant inhibition of constitutively-active Stat3 ([1]; NIH3T3/v-Src, data not shown): > 12 h | concentration that inhibits intracellular Stat3 signaling ([1]; mouse fibroblasts): 5 to 10 µM | constitutively-active Stat3 DNA-binding activity, mock-transfected cells ([1]; parental, mock-transfected NIH3T3/v-Src, 5 μM, 36 h): significant reduction | constitutive activation of Stat3 DNA-binding activity ([1]; time- and dose-dependent): inhibits | proliferation (Ki67 index) [2]: lack of effect | time at which IL-6-induced Stat3 activation was inhibited ([3]; IL-6-stimulated NIH3T3): ≤ 30 min | ligand-induced activation of Stat3 DNA-binding activity ([3]; time- and dose-dependent): inhibits
